Experiments:
Details in all cases: 72 h
Caco-2 [1] = test: cell viability relative to DMSO; higher = less toxic
Calu-3 [2] = test: as above
HepG2 [3] = test: as above
U2OS [4] = test: as above
Vero E6 [5] = test: as above
Calu-3 [6] = test: relative viability EC50 (midpoint between 100% and the lowest measured viability); higher = less toxic
HepG2 [7] = test: as above
U2OS [8] = test: as above
Vero E6 [9] = test: as above
Caco-2 [10] = test: drug sensitivity score (DSS) for viability; higher = more toxic; extreme values may be limits of the assay
Calu-3 [11] = test: as above
HepG2 [12] = test: as above
U2OS [13] = test: as above
Vero E6 [14] = test: as above
Caco-2 [15] = test: relative viability EC50 (midpoint between 100% and the lowest measured viability); higher = less toxic

Row | SMILES | cell viability (Caco-2 [1]; 1 nM) [%] | cell viability (Caco-2 [1]; 10 nM) [%] | cell viability (Caco-2 [1]; 100 nM) [%] | cell viability (Caco-2 [1]; 1000 nM) [%] | cell viability (Caco-2 [1]; 10000 nM) [%] | cell viability (Calu-3 [2]; 1 nM) [%] | cell viability (Calu-3 [2]; 10 nM) [%] | cell viability (Calu-3 [2]; 100 nM) [%] | cell viability (Calu-3 [2]; 1000 nM) [%] | cell viability (Calu-3 [2]; 10000 nM) [%] | cell viability (HepG2 [3]; 1 nM) [%] | cell viability (HepG2 [3]; 10 nM) [%] | cell viability (HepG2 [3]; 100 nM) [%] | cell viability (HepG2 [3]; 1000 nM) [%] | cell viability (HepG2 [3]; 10000 nM) [%] | cell viability (U2OS [4]; 1 nM) [%] | cell viability (U2OS [4]; 10 nM) [%] | cell viability (U2OS [4]; 100 nM) [%] | cell viability (U2OS [4]; 1000 nM) [%] | cell viability (U2OS [4]; 10000 nM) [%] | cell viability (Vero E6 [5]; 1 nM) [%] | cell viability (Vero E6 [5]; 10 nM) [%] | cell viability (Vero E6 [5]; 100 nM) [%] | cell viability (Vero E6 [5]; 1000 nM) [%] | cell viability (Vero E6 [5]; 10000 nM) [%] | relative viability EC50 (Calu-3 [6]) [µM] | relative viability EC50 (HepG2 [7]) [µM] | relative viability EC50 (U2OS [8]) [µM] | relative viability EC50 (Vero E6 [9]) [µM] | drug sensitivity score (Caco-2 [10]) | drug sensitivity score (Calu-3 [11]) | drug sensitivity score (HepG2 [12]) | drug sensitivity score (U2OS [13]) | drug sensitivity score (Vero E6 [14]) | relative viability EC50 (Caco-2 [15]) [µM]
1 | CCCCCS(=O)(=O)CCCCCCCCCCn1c(-c2ccc(O)cc2)c(C)c2cc(O)ccc21 | 86.2 | 98.7 | 97.7 | 96.8 | 55.5 | 101 | 98.3 | 100 | 106 | 76.5 | 104 | 92.3 | 98.5 | 96.6 | 33.8 | 99.2 | 96.6 | 100 | 101 | 91.5 | 95 | 99.3 | 100 | 98.1 | 77.6 | > 10 | 2.77 | > 10 | > 10 | 2.8 | 0.6 | 4.1 | 0 | 1 | 
2 | CCN(CC)CCCCNc1ncc2cc(-c3c(Cl)cccc3Cl)c(NC(=O)NC(C)(C)C)nc2n1 | 98.4 | 94.3 | 96 | 75.2 | 69.5 | 104 | 90 | 104 | 77.2 | 29.8 | 98.3 | 102 | 106 | 65.5 | 40.3 | 100 | 101 | 95.2 | 76.8 | 31.9 | 102 | 102 | 104 | 104 | 25.2 | 1.34 | 0.885 | 1.38 | 3.48 | 4.4 | 7.2 | 7.5 | 6.7 | 3.8 | 
3 | CCOC(=O)c1ncc2[nH]c3cccc(OC(C)C)c3c2c1C | 101 | 113 | 109 | 103 | 75 | 88.7 | 112 | 99.1 | 104 | 74.9 | 114 | 102 | 137 | 98.8 | 109 |  |  |  |  |  |  |  |  |  |  |  | > 10 |  |  | 0.8 | 0.8 | 0 |  |  | > 10
4 | COc1ccc(CNC(=O)Nc2ncc([N+](=O)[O-])s2)cc1 | 105 | 103 | 95.5 | 103 | 73.7 | 104 | 107 | 94.9 | 107 | 96.5 | 113 | 107 | 102 | 99.8 | 30.3 | 96.1 | 104 | 96.5 | 102 | 90.8 | 106 | 104 | 101 | 102 | 97.2 | > 10 | 3.15 | > 10 | > 10 | 0.9 | 0 | 3.9 | 0 | 0 | 
5 | Cc1n[nH]c(C)c1Cc1sc2c(c1C(=O)N1C[C@H](O)CO1)c(=O)n(C)c(=O)n2CC(C)C | 91.3 | 79.3 | 77.2 | 67.4 | 69 | 102 | 86.3 | 99.4 | 93.3 | 99.8 | 97 | 108 | 95 | 98.8 | 109 | 97.8 | 92.6 | 89.4 | 86.7 | 89.7 | 89.7 | 98.7 | 92.9 | 95.7 | 101 | > 10 | > 10 | > 10 | > 10 | 10.2 | 0 | 0 | 1.2 | 0 | 
6 | Nc1nc(Nc2ccc(S(N)(=O)=O)cc2)nn1C(=O)c1c(F)cccc1F | 107 | 100 | 101 | 106 | 63.7 | 102 | 97.1 | 98.1 | 127 | 33.2 | 103 | 103 | 92.8 | 76.7 | 8.9 | 102 | 102 | 100 | 104 | 2.1 | 107 | 104 | 106 | 99.1 | 68.7 | 4.32 | 1.53 | 3.41 |  | 1.4 | 2.6 | 8.6 | 5.1 | 1.5 | 
7 | COc1ccc2c(Oc3ccc(NC(=O)c4c(C)n(CC(C)(C)O)n(-c5ccccc5)c4=O)nc3)ccnc2c1 [AMG458] | 99.6 | 106 | 90.8 | 95.9 | 72 | 99.1 | 106 | 100 | 92.7 | 86.6 | 99.3 | 92.2 | 98.2 | 88.3 | 65.8 | 102 | 116 | 99.3 | 103 | 93.3 | 104 | 103 | 104 | 98.6 | 102 | > 10 |  | > 10 | > 10 | 1.8 | 0.5 | 3 | 0 | 0 | 
8 | CC(C)(C)c1cc(C(=O)/C=C/c2ccc(C(=O)O)cc2)cc(C(C)(C)C)c1 [CH55] | 102 | 87.3 | 90.8 | 93.3 | 67 | 92 | 92.1 | 76.9 | 87.5 | 77.8 | 109 | 113 | 120 | 105 | 91.9 | 98.2 | 97.3 | 91 | 97.7 | 64.4 |  |  |  |  |  | > 10 | > 10 |  |  | 2.4 | 4.3 | 0 | 2 |  | 
9 | c1ccc(-c2cnn3cc(-c4ccc(OCCN5CCOCC5)cc4)cnc23)cc1 [DMH4] | 105 | 97.9 | 93.6 | 96.1 | 74.3 | 101 | 107 | 89.6 | 114 | 85.9 | 96.4 | 95.1 | 98.2 | 91.5 | 50.7 | 102 | 101 | 99.6 | 98.6 | 80.8 | 97.1 | 101 | 101 | 91.4 | 104 | > 10 |  | > 10 | > 10 | 1.6 | 0 | 4 | 0.7 | 0 | 
10 | COc1cc(C=O)c([N+](=O)[O-])cc1OC [DMNB] |  |  |  |  |  | 102 | 102 | 103 | 96.9 | 107 |  |  |  |  |  |  |  |  |  |  | 103 | 100 | 99.2 | 96.9 | 96.6 | > 10 |  |  | > 10 |  | 0 |  |  | 0 | 
11 | O=C1c2ccccc2C(Cc2ccnc(F)c2)(Cc2ccnc(F)c2)c2ccccc21 [DMP-543] | 97.2 | 100 | 92.5 | 81.2 | 72.9 | 103 | 92.1 | 85.9 | 92 | 81.3 | 90.1 | 100 | 94.4 | 95.4 | 89.4 | 99.8 | 105 | 96 | 96.6 | 95.1 | 101 | 101 | 100 | 97.7 | 94.8 | > 10 | > 10 | > 10 | > 10 | 3.3 | 1.7 | 0 | 0 | 0 | 
12 | O=C(/C=C\n1cnc(-c2cc(C(F)(F)F)cc(C(F)(F)F)c2)n1)N1CC(F)(F)C1 [KPT-276] | 104 | 91.2 | 88.8 | 73.9 | 66.2 | 97.3 | 102 | 97.2 | 64.1 | 68.3 | 100 | 85.5 | 80 | 44.4 | 32.8 | 106 | 96 | 91.4 | 68 | 17.3 | 93.5 | 96.1 | 82.3 | 69.8 | 36.9 |  | 0.19 | 1.3 | 0.611 | 5.4 | 6.7 | 12.8 | 8.2 | 8.1 | 
13 | O=C(c1cccc(Cl)c1F)N1CCN(Cc2cccc(Nc3nccs3)n2)CC1 [MK-8745] | 92.1 | 94.2 | 91.7 | 86.5 | 70.7 | 92.6 | 88.5 | 92 | 85.1 | 92.2 | 105 | 115 | 101 | 54.7 | 37.7 | 102 | 99.5 | 98.5 | 98.4 | 69.1 | 99.2 | 101 | 99 | 90.2 | 78 | > 10 | 0.676 |  | > 10 | 2.8 | 0 | 8.7 | 1.6 | 1.6 | 
14 | CC(C)NC(=O)N1CC[C@H](NC2=Nc3cc(F)ccc3N(CC(F)F)c3ccc(Cl)cc32)C1 [NVS-PAK1-1] | 84.8 | 120 | 90.9 | 110 | 56.4 | 103 | 112 | 91.9 | 90 | 44.8 | 108 | 104 | 93.6 | 97.3 | 93.4 | 104 | 104 | 98.7 | 93.4 | 51.3 | 99.8 | 101 | 108 | 92.3 | 31.4 | 1.82 | > 10 |  | 2.24 | 1.7 | 4.6 | 0 | 3.7 | 5 | 
15 | CC(=O)/N=c1/[nH]c(C)c(-c2ccc(Cl)c(S(=O)(=O)NCCO)c2)s1 [PIK-93] | 94 | 109 | 92.5 | 93.5 | 58.9 | 103 | 102 | 91 | 81.2 | 41.9 | 91.8 | 92.7 | 83.9 | 71.6 | 34.7 | 102 | 106 | 98.1 | 90.8 | 58.6 | 106 | 105 | 99 | 96.9 | 78.6 | 1.49 | 0.745 |  | > 10 | 3.2 | 5.3 | 7.8 | 3.6 | 1.1 | 
